{
  "source": "BindingDB's records for patent US20250243186",
  "about": "(Hansoh Bio, 2025)",
  "biological_target": "T1, Complement factor B [470-764] (UniProt P00751)",
  "T1 construct": "470-764",
  "T1 sequence (P00751 470-764)": "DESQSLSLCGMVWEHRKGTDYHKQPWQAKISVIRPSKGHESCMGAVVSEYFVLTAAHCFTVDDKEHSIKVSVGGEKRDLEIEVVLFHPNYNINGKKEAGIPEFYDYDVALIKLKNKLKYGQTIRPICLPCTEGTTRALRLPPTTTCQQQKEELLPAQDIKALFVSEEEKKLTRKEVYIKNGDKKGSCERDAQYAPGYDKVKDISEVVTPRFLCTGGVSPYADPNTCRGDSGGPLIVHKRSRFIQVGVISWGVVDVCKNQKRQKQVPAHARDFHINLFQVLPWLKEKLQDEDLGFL",
  "assay": "Factor B Binding Assay by TR-FRET",
  "protocol": "Table 1: Factor B binding affinity of each compound tested was determined using a time-resolved fluorescence resonance energy transfer (TR-FRET) technology. 10 nM recombinant his-tagged Factor B catalytic domain, varying concentrations of inhibitors, 4 nM LANCE Eu-W1024 Anti-6×His Antibody and 100 nM TR-FRET_tool2 tracer was incubated in 1× Kinase Buffer A for 1 h. Measurement was performed in a reaction volume of 15 μL by adding 5 μL of the test compound, 5 μL of Factor B/antibody mixture and 5 μL of tracer into white opaque 384-well assay plates. The TR-FRET signal was read on a plate reader with an excitation wavelength of 340 nm and detection wavelengths of 615 and 665 nm.",
  "data": [
    {"smiles": "COc1cc(C)c2[nH]ccc2c1CN1CC2CCC2C1c1ccc(C(=O)O)cc1", "note": "(stereo unspecified) [US20250243186, Example 22]", "values": [
      {"measurement": "IC50", "result": 45, "unit": "nM"}
    ]}
  ]
}
